In ChEMBL document CHEMBL1201862, “PubChem BioAssay data set” (2004):
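Five concentrations, 48 hours, 96-well plates. GI50 marks 50% less growth.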 The source made the active and inactive calls. Rule as the data show it: active = GI50 up to about 1.1 µM and inactive = higher.

How the values were obtained:
Test in all cases: NCI anticancer screen, dose series, 48 h
A549 = tested on: A549
ACHN = tested on: ACHN
COLO 205 = tested on: COLO 205
HCT-116 = tested on: HCT-116
HL-60 = tested on: HL-60
HOP-62 = tested on: HOP-62
IGROV-1 = tested on: IGROV-1
KM12 = tested on: KM12
M14 = tested on: M14
MDA-MB-435 = tested on: MDA-MB-435
NCI-H23 = tested on: NCI-H23
OVCAR-4 = tested on: OVCAR-4
OVCAR-5 = tested on: OVCAR-5
SF-268 = tested on: SF-268
SF-295 = tested on: SF-295
SK-MEL-28 = tested on: SK-MEL-28
SN12C = tested on: SN12C
UO-31 = tested on: UO-31
K562 = tested on: K562
SR = tested on: SR

| SMILES | GI50 (A549) | GI50 (ACHN) | GI50 (COLO 205) | GI50 (HCT-116) | GI50 (HL-60) | GI50 (HOP-62) | GI50 (IGROV-1) | GI50 (KM12) | GI50 (M14) | GI50 (MDA-MB-435) | GI50 (NCI-H23) | GI50 (OVCAR-4) | GI50 (OVCAR-5) | GI50 (SF-268) | GI50 (SF-295) | GI50 (SK-MEL-28) | GI50 (SN12C) | GI50 (UO-31) | GI50 (K562) | GI50 (SR) |
| --- | --- | --- | --- | --- | --- | --- | --- | --- | --- | --- | --- | --- | --- | --- | --- | --- | --- | --- | --- | --- |
| CCC(=O)OC1CCn2c1nc1c2C(=O)C(C)=C(N2CC2)C1=O (stereo unspecified) | 0.115 µM (active) | 0.0895 µM (active) | 0.199 µM (active) | 0.0935 µM (active) | 0.35 µM (active) | 0.0697 µM (active) | 0.482 µM (active) | 0.0938 µM (active) | 0.0698 µM (active) | 0.0254 µM (active) | < 0.0423 µM (active) | 0.126 µM (active) | 0.0902 µM (active) | 0.0755 µM (active) | 0.0728 µM (active) | 0.0791 µM (active) | 0.0881 µM (active) | 0.0698 µM (active) | – | – |
| CCSC1=N/C(=C\c2ccco2)C(=O)N1 | > 100 µM (inactive) | > 100 µM (inactive) | > 100 µM (inactive) | > 100 µM (inactive) | – | > 100 µM (inactive) | 74.8 µM (inactive) | > 100 µM (inactive) | > 100 µM (inactive) | > 100 µM (inactive) | > 100 µM (inactive) | – | > 100 µM (inactive) | > 100 µM (inactive) | > 100 µM (inactive) | > 100 µM (inactive) | > 100 µM (inactive) | > 100 µM (inactive) | > 100 µM (inactive) | > 100 µM (inactive) |
| NCCCC[C@H](N)C(=O)Nc1ccc(-c2nc3ccccc3s2)cc1 | 31.2 µM (inactive) | 20.3 µM (inactive) | 18.7 µM (inactive) | 19 µM (inactive) | – | 25.1 µM (inactive) | 16.7 µM (inactive) | 18.5 µM (inactive) | 12.6 µM (inactive) | 18.7 µM (inactive) | 25.6 µM (inactive) | 36.2 µM (inactive) | 14.9 µM (inactive) | 23.2 µM (inactive) | 15.7 µM (inactive) | 19.7 µM (inactive) | 24.8 µM (inactive) | 12.7 µM (inactive) | 19.6 µM (inactive) | 18.4 µM (inactive) |
| O=C(c1ccccc1Cl)n1oc2ccccc2c1=O | > 100 µM (inactive) | > 100 µM (inactive) | 35.7 µM (inactive) | 52.8 µM (inactive) | 18 µM (inactive) | > 100 µM (inactive) | 69.2 µM (inactive) | 84.1 µM (inactive) | > 100 µM (inactive) | > 100 µM (inactive) | – | > 100 µM (inactive) | > 100 µM (inactive) | > 100 µM (inactive) | > 100 µM (inactive) | > 100 µM (inactive) | > 100 µM (inactive) | > 100 µM (inactive) | 7.62 µM (inactive) | – |
| Cn1c2ccccc2c2c(=O)[nH]c(=O)[nH]c21 | > 100 µM (inactive) | > 100 µM (inactive) | > 100 µM (inactive) | > 100 µM (inactive) | > 100 µM (inactive) | > 100 µM (inactive) | > 100 µM (inactive) | > 100 µM (inactive) | > 100 µM (inactive) | > 100 µM (inactive) | > 100 µM (inactive) | – | > 100 µM (inactive) | > 100 µM (inactive) | > 100 µM (inactive) | > 100 µM (inactive) | > 100 µM (inactive) | > 100 µM (inactive) | > 100 µM (inactive) | > 100 µM (inactive) |
| O=S(=O)(/N=S(/Nc1ccccc1)C(Cl)Cl)c1ccccc1 (stereo unspecified) | > 100 µM (inactive) | > 100 µM (inactive) | > 100 µM (inactive) | > 100 µM (inactive) | > 100 µM (inactive) | > 100 µM (inactive) | > 100 µM (inactive) | > 100 µM (inactive) | > 100 µM (inactive) | > 100 µM (inactive) | > 100 µM (inactive) | > 100 µM (inactive) | > 100 µM (inactive) | > 100 µM (inactive) | > 100 µM (inactive) | > 100 µM (inactive) | > 100 µM (inactive) | > 100 µM (inactive) | > 100 µM (inactive) | – |
| O=C(O)COc1cc(-c2ccccc2F)nc2cc3c(cc12)OCO3 | > 100 µM (inactive) | > 100 µM (inactive) | > 100 µM (inactive) | > 100 µM (inactive) | – | > 100 µM (inactive) | > 100 µM (inactive) | > 100 µM (inactive) | > 100 µM (inactive) | > 100 µM (inactive) | > 100 µM (inactive) | – | > 100 µM (inactive) | > 100 µM (inactive) | > 100 µM (inactive) | > 100 µM (inactive) | > 100 µM (inactive) | – | > 100 µM (inactive) | > 100 µM (inactive) |
| O=C(Cc1ccc2ccccc2c1)NCc1ccc(C(=O)NCCc2ccccc2)cc1 | > 100 µM (inactive) | > 100 µM (inactive) | > 100 µM (inactive) | > 100 µM (inactive) | – | > 100 µM (inactive) | > 100 µM (inactive) | > 100 µM (inactive) | > 100 µM (inactive) | > 100 µM (inactive) | > 100 µM (inactive) | > 100 µM (inactive) | > 100 µM (inactive) | > 100 µM (inactive) | > 100 µM (inactive) | > 100 µM (inactive) | > 100 µM (inactive) | > 100 µM (inactive) | > 100 µM (inactive) | > 100 µM (inactive) |
| Nc1ccn(C2CCC(COP(=O)(O)OCC(O)COP(=O)(O)OCC3OC(n4cc(F)c(=O)[nH]c4=O)CC3O)O2)c(=O)n1 (stereo unspecified) | 0.386 µM (active) | < 0.0106 µM (active) | 8.3 µM (inactive) | 0.581 µM (active) | 0.0716 µM (active) | 0.232 µM (active) | 11.2 µM (inactive) | > 38.1 µM (inactive) | 0.473 µM (active) | 14.8 µM (inactive) | 0.139 µM (active) | > 23.7 µM (inactive) | 9.93 µM (inactive) | 0.0101 µM (active) | 0.0459 µM (active) | 26.4 µM (inactive) | 0.135 µM (active) | 0.0622 µM (active) | 2.61 µM (inactive) | – |
| CCCCSC1=N/C(=C\c2ccccc2O)C(=O)N1 | 20.7 µM (inactive) | 40.3 µM (inactive) | > 100 µM (inactive) | 40.3 µM (inactive) | 94.6 µM (inactive) | > 100 µM (inactive) | > 100 µM (inactive) | 49.8 µM (inactive) | 71.6 µM (inactive) | > 100 µM (inactive) | 42.7 µM (inactive) | 66.1 µM (inactive) | > 100 µM (inactive) | > 100 µM (inactive) | 92 µM (inactive) | > 100 µM (inactive) | 79.1 µM (inactive) | 21.6 µM (inactive) | 78.3 µM (inactive) | – |
| Cc1nc2cc(Cl)c(N)cc2[nH]1 | > 100 µM (inactive) | > 100 µM (inactive) | > 100 µM (inactive) | > 100 µM (inactive) | > 100 µM (inactive) | > 100 µM (inactive) | > 100 µM (inactive) | > 100 µM (inactive) | > 100 µM (inactive) | > 100 µM (inactive) | > 100 µM (inactive) | – | > 100 µM (inactive) | > 100 µM (inactive) | > 100 µM (inactive) | > 100 µM (inactive) | > 100 µM (inactive) | > 100 µM (inactive) | > 100 µM (inactive) | > 100 µM (inactive) |
| O=c1oc2ccccc2cc1-c1nc2ccc([N+](=O)[O-])cc2o1 | > 100 µM (inactive) | 30.1 µM (inactive) | > 100 µM (inactive) | > 100 µM (inactive) | > 100 µM (inactive) | 28.1 µM (inactive) | > 100 µM (inactive) | > 100 µM (inactive) | > 100 µM (inactive) | > 100 µM (inactive) | > 100 µM (inactive) | – | – | > 100 µM (inactive) | 83.4 µM (inactive) | > 100 µM (inactive) | > 100 µM (inactive) | > 100 µM (inactive) | > 100 µM (inactive) | > 100 µM (inactive) |
| Cn1nc2ccc([N+](=O)[O-])cc2[n+]1[O-] | > 100 µM (inactive) | > 100 µM (inactive) | > 100 µM (inactive) | > 100 µM (inactive) | – | > 100 µM (inactive) | > 100 µM (inactive) | > 100 µM (inactive) | > 100 µM (inactive) | > 100 µM (inactive) | > 100 µM (inactive) | > 100 µM (inactive) | > 100 µM (inactive) | – | > 100 µM (inactive) | – | 22.4 µM (inactive) | > 100 µM (inactive) | > 100 µM (inactive) | > 100 µM (inactive) |
| Clc1ccc(Nc2ncco2)cc1Cl | > 10 µM (inactive) | > 10 µM (inactive) | > 10 µM (inactive) | > 10 µM (inactive) | – | > 10 µM (inactive) | > 10 µM (inactive) | > 10 µM (inactive) | > 10 µM (inactive) | > 10 µM (inactive) | > 10 µM (inactive) | > 10 µM (inactive) | > 10 µM (inactive) | > 10 µM (inactive) | > 10 µM (inactive) | > 10 µM (inactive) | > 10 µM (inactive) | > 10 µM (inactive) | > 10 µM (inactive) | > 10 µM (inactive) |
| COc1cc(O)c2c(=O)c(OC)c(-c3ccc4c(c3)OCO4)oc2c1 | > 28.8 µM (inactive) | 17.5 µM (inactive) | > 100 µM (inactive) | > 44.4 µM (inactive) | > 100 µM (inactive) | 7.76 µM (inactive) | > 52 µM (inactive) | > 100 µM (inactive) | > 85.1 µM (inactive) | > 100 µM (inactive) | > 31.5 µM (inactive) | – | > 100 µM (inactive) | 4.31 µM (inactive) | 14.4 µM (inactive) | > 100 µM (inactive) | > 100 µM (inactive) | > 100 µM (inactive) | – | > 100 µM (inactive) |
